Measurements as given in BindingDB's records for doi:10.1124/jpet.104.071282 (Neurocrine Biosciences, 2004).
Where “and” joins values, the source holds several entries; their conditions need not be identical. Equal entries are not always repeated.

Target: Gamma-aminobutyric acid receptor subunit alpha-1 (Rattus norvegicus, UniProt P62813)
Sequence (P62813 whole entry): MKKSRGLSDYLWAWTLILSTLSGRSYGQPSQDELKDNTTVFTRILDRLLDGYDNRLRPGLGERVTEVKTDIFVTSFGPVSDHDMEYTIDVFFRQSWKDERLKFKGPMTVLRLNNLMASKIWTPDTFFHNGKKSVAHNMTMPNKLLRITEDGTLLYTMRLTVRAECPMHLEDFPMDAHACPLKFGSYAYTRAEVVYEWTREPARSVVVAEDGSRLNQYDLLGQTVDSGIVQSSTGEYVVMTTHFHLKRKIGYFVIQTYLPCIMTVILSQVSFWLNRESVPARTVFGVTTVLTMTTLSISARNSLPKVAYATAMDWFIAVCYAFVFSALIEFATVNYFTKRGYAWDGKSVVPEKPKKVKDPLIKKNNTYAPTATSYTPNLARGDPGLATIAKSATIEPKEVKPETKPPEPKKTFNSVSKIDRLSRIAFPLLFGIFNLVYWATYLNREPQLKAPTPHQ

SMILES: Cc1nnc2n1-c1ccc(Cl)cc1C(c1ccccc1Cl)=NC2 [Halcion]
- Ki: 0.34 nM and 0.31 nM and 0.55 nM and 0.45 nM
